Experimental data published in patent publication US10246466B2, “Diaryl macrocycles as modulators of protein kinases” (TP THERAPEUTICS, INC., priority 2014, dated 2019).
pIC50: −log10 of the molar value.

Assays:
Type in all cases: cell-based
[1] = test system: Essential thrombocythemia cell line SET-2 cells (harboring endogenous JAK2 point mutation); experiment: SET-2 cell proliferation assay (CellTiter-Glo); conditions: Homo sapiens, 72 hours incubation, read-out: SET2 cell proli. IC50
[2] = test system: T cell lymphoma Karpas-299 cell line (harboring endogenous NPM-ALK fusion gene); experiment: Karpas-299 cell proliferation assay (CellTiter-Glo); conditions: Homo sapiens, 72 hours incubation, read-out: Karpas 299 cell proli. IC50
[3] = test system: Colorectal cell line KM12 (harboring endogenous TPM3-TRKA fusion gene); experiment: KM12 cell proliferation assay (CellTiter-Glo); conditions: Homo sapiens, 72 hours incubation, read-out: KM 12 cell prolif. IC50
Experimental: (§1) Colorectal cell lines KM 12 (harboring endogenous TPM3-TRKA fusion gene) cells were cultured in DMEM medium, supplemented with 10% fetal bovine serum and 100 U/mL of penicillin/streptomycin. 5000 cells were seeded in 384 well white plate for 24 hours before compounds treatment. Cell proliferation was measured using CellTiter-Glo luciferase-based ATP detection assay (Promega) following the manufactures's protocol after 72 hours incubation. IC50 determinations were performed using GraphPad Prism software (GraphPad, Inc., San Diego, Calif.).
as §1, with “Alternatively: Colorectal” for “Colorectal”, “line KM12” for “lines KM 12”, “penicillin/streptomycin. […]” for “penicillin/streptomycin.”

| SMILES | pIC50 [2] | pIC50 [1] | pIC50 [3] |
| --- | --- | --- | --- |
| O=C1NCCOc2ccc(F)cc2CN(CCO)c2ccn3ncc1c3n2 [Example 47, 11-fluoro-14-(2-hydroxyethyl)-6,7,13,14-tetrahydro-1,15-ethenopyrazolo[4,3-f][1,4,8,10]benzoxatriazacyclotridecin-4(5H)-one] | < 5.00 | < 5.00 | 7.51 |
| CC1COc2ccc(F)cc2CN(C)c2ccn3ncc(c3n2)C(=O)N1 (stereo not drawn) [Example 48, 11-fluoro-6,14-dimethyl-6,7,13,14-tetrahydro-1,15-ethenopyrazolo[4,3-f][1,4,8,10]benzoxatriazacyclotridecin-4(5H)-one] | 5.22 | 5.22 | 7.21 |
| COC(=O)C1Nc2ccn3ncc(c3n2)C(=O)NCCOc2ccc(F)cc21 (stereo not drawn) [Example 59, methyl 11-fluoro-4-oxo-4,5,6,7,13,14-hexahydro-1,15-ethenopyrazolo[4,3-f][1,4,8,10]benzoxatriazacyclotridecine-13-carboxylate] |  |  | < 6.00 |
| NC(=O)C1Nc2ccn3ncc(c3n2)C(=O)NCCOc2ccc(F)cc21 (stereo not drawn) [Example 60, 11-fluoro-4-oxo-4,5,6,7,13,14-hexahydro-1,15-ethenopyrazolo[4,3-f][1,4,8,10]benzoxatriazacyclotridecine-13-carboxamide] |  |  | < 6.00 |
| CN1Cc2cc(F)cnc2OCCNC(=O)c2cnn3ccc1nc23 [Example 61, 11-fluoro-14-methyl-6,7,13,14-tetrahydro-1,15-ethenopyrazolo[4,3-f]pyrido[3,2-1][1,4,8,10]oxatriazacyclotridecin-4(5H)-one] | 5.41 | 5.43 | 9.22 |
| CC(C)N1Cc2cc(F)cnc2OCCNC(=O)c2cnn3ccc1nc23 [Example 62, 11-fluoro-14-(propan-2-yl)-6,7,13,14-tetrahydro-1,15-ethenopyrazolo[4,3-f]pyrido[3,2-1][1,4,8,10]oxatriazacyclotridecin-4(5H)-one] | 5.40 |  | 9.05 |
| [2H]C1([2H])NC(=O)c2cnn3ccc(nc23)N(C)Cc2cc(F)ccc2OC1([2H])[2H] [Example 87, 11-fluoro-14-methyl(6,6,7,7-^2H4)-6,7,13,14-tetrahydro-1,15-ethenopyrazolo[4,3-f][1,4,8,10]benzoxatriazacyclotridecin-4(5H)-one] | 5.80 | 5.56 | 9.52 |
| C[C@@H]1CNC(=O)c2cnn3ccc(nc23)N(C)Cc2cc(F)ccc2O1 [Example 94, (7R)-11-fluoro-7,14-dimethyl-6,7,13,14-tetrahydro-1,15-ethenopyrazolo[4,3-f][1,4,8,10]benzoxatriazacyclotridecin-4(5H)-one] | < 5.00 | < 5.00 | 9.70 |
| C[C@@H]1COc2ccc(F)cc2CN(C)c2ccn3ncc(c3n2)C(=O)N1 [Example 95, (6R)-11-fluoro-6,14-dimethyl-6,7,13,14-tetrahydro-1,15-ethenopyrazolo[4,3-f][1,4,8,10]benzoxatriazacyclotridecin-4(5H)-one] | 5.39 | 5.57 | 9.40 |
| CN1Cc2cc(F)ccc2OCC(O)CNC(=O)c2cnn3ccc1nc23 (stereo not drawn) [Example 96, 12-fluoro-7-hydroxy-15-methyl-5,6,7,8,14,15-hexahydro-4H-1,16-ethenopyrazolo[4,3-g][1,5,9,11]benzoxatriazacyclotetradecin-4-one] | 5.30 | 5.22 | 9.22 |
| C[C@H]1CNC(=O)c2cnn3ccc(nc23)N(C)Cc2cc(F)ccc2O1 [Example 97, (7S)-11-fluoro-7,14-dimethyl-6,7,13,14-tetrahydro-1,15-ethenopyrazolo[4,3-f][1,4,8,10]benzoxatriazacyclotridecin-4(5H)-one] | 5.85 | 5.19 | 9.52 |
| CC(C)(O)CN1Cc2cc(F)ccc2OCCNC(=O)c2cnn3ccc1nc23 [Example 101, 11-fluoro-14-(2-hydroxy-2-methylpropyl)-6,7,13,14-tetrahydro-1,15-ethenopyrazolo[4,3-f][1,4,8,10]benzoxatriazacyclotridecin-4(5H)-one] | < 5.00 | 5.22 | < 6.00 |

Further lines, with some results ahead:

| pIC50 [2] | SMILES | pIC50 [1] | pIC50 [3] |
| --- | --- | --- | --- |
| 5.39 | CCCN1Cc2cc(F)ccc2OCCNC(=O)c2cnn3ccc1nc23 [Example 44, 11-fluoro-14-propyl-6,7,13,14-tetrahydro-1,15-ethenopyrazolo[4,3-f][1,4,8,10]benzoxatriazacyclotridecin-4(5H)-one] | 5.69 | 8.00 |
| 5.15 | O=C1NCCOc2ccc(F)cc2CN(C2CC2)c2ccn3ncc1c3n2 [Example 46, 14-cyclopropyl-11-fluoro-6,7,13,14-tetrahydro-1,15-ethenopyrazolo[4,3-f][1,4,8,10]benzoxatriazacyclotridecin-4(5H)-one] | 5.15 | 8.82 |
| 5.72 | O=C1NCCOc2ccc(F)cc2C(C2CC2)Nc2ccn3ncc1c3n2 (stereo not drawn) [Example 66, 13-cyclopropyl-11-fluoro-6,7,13,14-tetrahydro-1,15-ethenopyrazolo[4,3-f][1,4,8,10]benzoxatriazacyclotridecin-4(5H)-one] | 5.81 | 7.76 |
| 5.92 | CC(C)C1Nc2ccn3ncc(c3n2)C(=O)NCCOc2ccc(F)cc21 (stereo not drawn) [Example 67, 11-fluoro-13-(propan-2-yl)-6,7,13,14-tetrahydro-1,15-ethenopyrazolo[4,3-f][1,4,8,10]benzoxatriazacyclotridecin-4(5H)-one] | 5.91 | 8.55 |
| 5.42 | C[C@H]1Nc2ccn3ncc(c3n2)C(=O)NCCCOc2ccc(F)cc21 [Example 76-1, (14R)-12-fluoro-14-methyl-5,6,7,8,14,15-hexahydro-4H-1,16-ethenopyrazolo[4,3-g][1,5,9,11]benzoxatriazacyclotetradecin-4-one] | 6.00 | 8.24 |
| 5.38 | CC1Nc2ccn3ncc(c3n2)C(=O)NCCOc2ccc(Cl)cc21 (stereo not drawn) [Example 84, 11-chloro-13-methyl-6,7,13,14-tetrahydro-1,15-ethenopyrazolo[4,3-f][1,4,8,10]benzoxatriazacyclotridecin-4(5H)-one] | 5.50 | 9.10 |
| 5.97 | CCC1Nc2ccn3ncc(c3n2)C(=O)NCCOc2ccc(F)cc21 (stereo not drawn) [Example 85, 13-ethyl-11-fluoro-6,7,13,14-tetrahydro-1,15-ethenopyrazolo[4,3-f][1,4,8,10]benzoxatriazacyclotridecin-4(5H)-one] | 6.03 | 9.05 |
| 6.00 | O=C1NCCOc2ccc(F)cc2C(C2CCC2)Nc2ccn3ncc1c3n2 (stereo not drawn) [Example 86, 13-cyclobutyl-11-fluoro-6,7,13,14-tetrahydro-1,15-ethenopyrazolo[4,3-f][1,4,8,10]benzoxatriazacyclotridecin-4(5H)-one] | 5.70 |  |
| 5.50 | O=C1NCCOc2ccc(F)cc2C(c2ccccc2)Nc2ccn3ncc1c3n2 (stereo not drawn) [Example 88, 11-fluoro-13-phenyl-6,7,13,14-tetrahydro-1,15-ethenopyrazolo[4,3-f][1,4,8,10]benzoxatriazacyclotridecin-4(5H)-one] | 5.72 | 7.30 |
| 5.85 | O=C1NCCOc2ccc(F)cc2C(CC2CC2)Nc2ccn3ncc1c3n2 (stereo not drawn) [Example 89, 13-(cyclopropylmethyl)-11-fluoro-6,7,13,14-tetrahydro-1,15-ethenopyrazolo[4,3-f][1,4,8,10]benzoxatriazacyclotridecin-4(5H)-one] | 6.07 | 9.70 |
| 5.78 | C[C@H]1Nc2ccn3ncc(c3n2)C(=O)NC[C@@H](O)COc2ccc(F)cc21 [Example 90, (7R,14R)-12-fluoro-7-hydroxy-14-methyl-5,6,7,8,14,15-hexahydro-4H-1,16-ethenopyrazolo[4,3-g][1,5,9,11]benzoxatriazacyclotetradecin-4-one] | 5.23 | 8.74 |
| 6.02 | C[C@H]1Nc2ccn3ncc(c3n2)C(=O)NC[C@H](O)COc2ccc(F)cc21 [Example 91, (7S,14R)-12-fluoro-7-hydroxy-14-methyl-5,6,7,8,14,15-hexahydro-4H-1,16-ethenopyrazolo[4,3-g][1,5,9,11]benzoxatriazacyclotetradecin-4-one] | 5.81 | 8.74 |
| 6.30 | O=C1NCCCOc2ccc(F)cc2C(CO)Nc2ccn3ncc1c3n2 (stereo not drawn) [Example 99, 12-fluoro-14-(hydroxymethyl)-5,6,7,8,14,15-hexahydro-4H-1,16-ethenopyrazolo[4,3-g][1,5,9,11]benzoxatriazacyclotetradecin-4-one] | 5.16 | 8.20 |
| 5.27 | CC1c2cc(F)ccc2OCCNC(=O)c2cnn3ccc(nc23)N1C (stereo not drawn) [Example 100, 11-fluoro-13,14-dimethyl-6,7,13,14-tetrahydro-1,15-ethenopyrazolo[4,3-f][1,4,8,10]benzoxatriazacyclotridecin-4(5H)-one] | 5.23 | 9.22 |
| 5.64 | O=C1NCCOc2ccc(F)cc2CCc2ccn3ncc1c3n2 [Example 102, 11-fluoro-6,7,13,14-tetrahydro-1,15-ethenopyrazolo[4,3-f][1,4,8]benzoxadiazacyclotridecin-4(5H)-one] | 5.61 | 8.92 |
